Test results from patent publication US9474790B2, “Stable, protracted GLP-1/glucagon receptor co-agonists for medical use” (Novo Nordisk A/S, priority 2013, dated 2016).
Numbered stars: 1 amine (or outer) side, 2 acyl side, 3 side chain; on linkers, the order of the positions; unused ones are H or OH. Bridge positions count the residues as written; N and C are the ends. Square brackets hold non-standard residues; d marks the D form. Side chains are listed from the residue outwards. Peptide text beside a SMILES is read from it. I, II: the chains in the order shown. * marks the point of attachment. C18 diacid = O=C(O)CCCCCCCCCCCCCCCCC(=O)*; γGlu = O=C(O)[C@H](CCC(=O)[*:2])N[*:1]; Ac4c = NC1(C(=O)O)CCC1; AEEA = NCCOCCOCC(=O)O; Aib = CC(C)(N)C(=O)O

Tests used:
[1] = Chemical stability assessment by RP-UPLC; type: physicochemical; settings: 333 μM, 8 mM phosphate buffer pH 7.3, 37° C. vs 5° C.
Procedure, shortened: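 Purity loss = (purity after 14 days at 5° C. minus that at 37° C.) relative to the 5° C. value, purity being main-peak area % by RP-UPLC with UV at 215 nm. Samples were 333 μM in 8 mM phosphate, pH 7.3; gradient adjusted for outlying retention times.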

[2] = Thioflavin T (ThT) fibrillation assay for physical stability; type: physicochemical; settings: 250 μM in 10 mM HEPES buffer, pH 7.5, 37° C., shaking 960 rpm
Procedure, shortened: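 Peptide at 250 μM in 10 mM HEPES pH 7.5 with 1 μM ThT, at 37° C with 960 rpm orbital shaking. Fluorescence (ex 444/em 485 nm) read every 20 min after 10 min pre-incubation; sigmoidal fit gives lag time (t0−2τ) and kapp (1/τ). Recovery is RP-HPLC peptide in the centrifuged, 0.22 μm-filtered supernatant as % of initial.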

Compound	Purity loss; 14 days at 37° C. [1] [%]	THT assay Lag time (Ex. 76) [2] [h]
CC(C)C[C@H](NC(=O)[C@H](Cc1ccc(O)cc1)NC(=O)[C@H](CCCCN)NC(=O)[C@H](CO)NC(=O)[C@H](CC(C)C)NC(=O)[C@H](CC(=O)O)NC(=O)[C@H](CO)NC(=O)[C@@H](NC(=O)[C@H](Cc1ccccc1)NC(=O)[C@@H](NC(=O)CNC(=O)[C@H](CCC(N)=O)NC(=O)C(C)(C)NC(=O)[C@@H](N)Cc1c[nH]cn1)[C@@H](C)O)[C@@H](C)O)C(=O)N[C@@H](CC(=O)O)C(=O)N[C@@H](C)C(=O)N[C@@H](CCCNC(=N)N)C(=O)N[C@@H](CCCNC(=N)N)C(=O)N[C@@H](C)C(=O)N[C@@H](CCCNC(=N)N)C(=O)N[C@@H](CC(=O)O)C(=O)N[C@@H](Cc1ccccc1)C(=O)N[C@H](C(=O)N[C@@H](CCC(N)=O)C(=O)N[C@@H](Cc1c[nH]c2ccccc12)C(=O)N[C@@H](CC(C)C)C(=O)N[C@@H](CC(C)C)C(=O)N[C@@H](CC(N)=O)C(=O)N[C@@H](CCCCNC(=O)CC[C@H](NC(=O)CC[C@H](NC(=O)COCCOCCNC(=O)COCCOCCNC(=O)CC[C@H](NC(=O)CCCCCCCCCCCCCCCCC(=O)O)C(=O)O)C(=O)O)C(=O)O)C(N)=O)C(C)C [Example 65] (H-H[Aib]QGTFTSDLSKYLDARRARDFVQWLLNK([γGlu-γGlu-AEEA-AEEA-γGlu-C18 diacid])-NH2; N-terminus assumed)	3	45
CC(C)C[C@H](NC(=O)[C@H](Cc1ccc(O)cc1)NC(=O)[C@H](CCCCN)NC(=O)[C@H](CO)NC(=O)[C@H](CC(C)C)NC(=O)[C@H](CC(=O)O)NC(=O)[C@H](CO)NC(=O)[C@@H](NC(=O)[C@H](Cc1ccccc1)NC(=O)[C@@H](NC(=O)CNC(=O)[C@H](CCC(N)=O)NC(=O)C(C)(C)NC(=O)[C@@H](N)Cc1c[nH]cn1)[C@@H](C)O)[C@@H](C)O)C(=O)N[C@@H](CCC(=O)O)C(=O)N[C@@H](CO)C(=O)N[C@@H](CCCNC(=N)N)C(=O)N[C@@H](CCCNC(=N)N)C(=O)N[C@@H](C)C(=O)N[C@@H](CCCNC(=N)N)C(=O)N[C@@H](CCC(=O)O)C(=O)N[C@@H](Cc1ccccc1)C(=O)N[C@H](C(=O)N[C@@H](CCC(N)=O)C(=O)N[C@@H](Cc1c[nH]c2ccccc12)C(=O)N[C@@H](CC(C)C)C(=O)N[C@@H](CC(C)C)C(=O)N[C@@H](CCCCNC(=O)CC[C@H](NC(=O)CC[C@H](NC(=O)COCCOCCNC(=O)COCCOCCNC(=O)CC[C@H](NC(=O)CCCCCCCCCCCCCCCCC(=O)O)C(=O)O)C(=O)O)C(=O)O)C(=O)N[C@H](C(N)=O)[C@@H](C)O)C(C)C [Example 23, N^ε28-[(4S)-4-carboxy-4-[[(4S)-4-carboxy-4-[[2-[2-[2-[[2-[2-[2-[[(4S)-4-carboxy-4-(17-carboxyheptadecanoylamino)butanoyl]amino]ethoxy]ethoxy]acetyl]amino]ethoxy]ethoxy]acetyl]amino]butanoyl]amino]butanoyl]-[Aib2,Leu10,Glu15,Arg20,Glu21,Leu27,Lys28]-Glucagon amide] (H-H[Aib]QGTFTSDLSKYLESRRAREFVQWLLK([γGlu-γGlu-AEEA-AEEA-γGlu-C18 diacid])T-NH2; N-terminus assumed)	2	45
CC(C)C[C@H](NC(=O)[C@H](Cc1ccc(O)cc1)NC(=O)[C@H](CCCCN)NC(=O)[C@H](CO)NC(=O)[C@H](CC(C)C)NC(=O)[C@H](CC(=O)O)NC(=O)[C@H](CO)NC(=O)[C@@H](NC(=O)[C@H](Cc1ccccc1)NC(=O)[C@@H](NC(=O)CNC(=O)[C@H](CCC(N)=O)NC(=O)C(C)(C)NC(=O)[C@@H](N)Cc1c[nH]cn1)[C@@H](C)O)[C@@H](C)O)C(=O)N[C@@H](CCC(=O)O)C(=O)N[C@@H](CO)C(=O)N[C@@H](CCCCN)C(=O)N[C@@H](CCCNC(=N)N)C(=O)N[C@@H](C)C(=O)N[C@@H](CCCNC(=N)N)C(=O)N[C@@H](CCC(=O)O)C(=O)N[C@@H](Cc1ccccc1)C(=O)N[C@H](C(=O)N[C@@H](CCC(N)=O)C(=O)N[C@@H](Cc1c[nH]c2ccccc12)C(=O)N[C@@H](CC(C)C)C(=O)N[C@@H](CC(C)C)C(=O)N[C@@H](CCCCNC(=O)CNC(=O)[C@H](CO)NC(=O)[C@H](CCC(=O)O)NC(=O)CNC(=O)[C@H](CO)NC(=O)CC[C@H](NC(=O)CC[C@H](NC(=O)CCCCCCCCCCCCCCCCC(=O)O)C(=O)O)C(=O)O)C(=O)N[C@H](C(N)=O)[C@@H](C)O)C(C)C [Example 25, N^ε28-[2-[[(2S)-2-[[(2S)-4-carboxy-2-[[2-[[(2S)-2-[[(4S)-4-carboxy-4-[[(4S)-4-carboxy-4-(17-carboxyheptadecanoylamino)butanoyl]amino]butanoyl]amino]-3-hydroxypropanoyl]amino]acetyl]amino]butanoyl]amino]-3-hydroxypropanoyl]amino]acetyl]-[Aib2,Leu10,Glu15,Lys17,Arg20,Glu21,Leu27,Lys28]-Glucagon amide] (I: H-H[Aib]QGTFTSDLSKYLESKRAREFVQWLLKT-NH2 / II: {C18 diacid-γGlu-γGlu}-SGESG; amide I:28-II:C; N-terminus assumed)	1	45
CC(C)C[C@H](NC(=O)[C@H](CC(=O)O)NC(=O)[C@H](CC(C)C)NC(=O)[C@H](Cc1ccc(O)cc1)NC(=O)[C@H](CCCNC(=N)N)NC(=O)[C@H](CO)NC(=O)[C@H](CC(C)C)NC(=O)[C@H](CC(=O)O)NC(=O)[C@H](CO)NC(=O)[C@@H](NC(=O)[C@H](Cc1ccccc1)NC(=O)[C@@H](NC(=O)CNC(=O)[C@H](CCC(N)=O)NC(=O)C1(NC(=O)[C@@H](N)Cc2c[nH]cn2)CCC1)[C@@H](C)O)[C@@H](C)O)C(=O)N[C@@H](CCCNC(=N)N)C(=O)N[C@@H](CCCNC(=N)N)C(=O)N[C@@H](C)C(=O)N[C@@H](CCCNC(=N)N)C(=O)N[C@@H](CC(=O)O)C(=O)N[C@@H](Cc1ccccc1)C(=O)N[C@H](C(=O)N[C@@H](CCC(N)=O)C(=O)N[C@@H](Cc1c[nH]c2ccccc12)C(=O)N[C@@H](CC(C)C)C(=O)N[C@@H](CC(C)C)C(=O)N[C@@H](CCCCNC(=O)CC[C@H](NC(=O)CC[C@H](NC(=O)COCCOCCNC(=O)COCCOCCNC(=O)CC[C@H](NC(=O)CC[C@H](NC(=O)CCCCCCCCCCCCCCCCC(=O)O)C(=O)O)C(=O)O)C(=O)O)C(=O)O)C(=O)N[C@H](C(N)=O)[C@@H](C)O)C(C)C [Example 46, N^ε28-[(4S)-4-carboxy-4-[[(4S)-4-carboxy-4-[[2-[2-[2-[[2-[2-[2-[[(4S)-4-carboxy-4-[[(4S)-4-carboxy-4-(17-carboxyheptadecanoylamino)butanoyl]amino]butanoyl]amino]ethoxy]ethoxy]acetyl]amino]ethoxy]ethoxy]acetyl]amino]butanoyl]amino]butanoyl]-[Acb2,Leu10,Arg12,Leu16,Arg20,Leu27,Lys28]-Glucagon amide] (H-H[Ac4c]QGTFTSDLSRYLDLRRARDFVQWLLK([γGlu-γGlu-AEEA-AEEA-γGlu-γGlu-C18 diacid])T-NH2; N-terminus assumed)	1	45
CC(C)C[C@H](NC(=O)[C@H](Cc1ccc(O)cc1)NC(=O)[C@H](CCCCN)NC(=O)[C@H](CO)NC(=O)[C@H](CC(C)C)NC(=O)[C@H](CC(=O)O)NC(=O)[C@H](CO)NC(=O)[C@@H](NC(=O)[C@H](Cc1ccccc1)NC(=O)[C@@H](NC(=O)CNC(=O)[C@H](CCC(N)=O)NC(=O)C(C)(C)NC(=O)[C@@H](N)Cc1c[nH]cn1)[C@@H](C)O)[C@@H](C)O)C(=O)N[C@@H](CCC(=O)O)C(=O)N[C@@H](CO)C(=O)N[C@@H](CCCNC(=N)N)C(=O)N[C@@H](CCCNC(=N)N)C(=O)N[C@@H](C)C(=O)N[C@@H](CCCNC(=N)N)C(=O)N[C@@H](CCC(=O)O)C(=O)N[C@@H](Cc1ccccc1)C(=O)N[C@H](C(=O)N[C@@H](CCC(N)=O)C(=O)N[C@@H](Cc1c[nH]c2ccccc12)C(=O)N[C@@H](CC(C)C)C(=O)N[C@@H](CC(C)C)C(=O)N[C@@H](CCCCNC(=O)CC[C@H](NC(=O)CC[C@H](NC(=O)CC[C@H](NC(=O)CCCCCCCCCCCCCCCCC(=O)O)C(=O)O)C(=O)O)C(=O)O)C(=O)N[C@H](C(N)=O)[C@@H](C)O)C(C)C [Example 41, N^ε28-[(4S)-4-carboxy-4-[[(4S)-4-carboxy-4-[[(4S)-4-carboxy-4-(17-carboxyheptadecanoylamino)butanoyl]amino]butanoyl]amino]butanoyl]-[Aib2,Leu10,Glu15, Arg20,Glu21,Leu27,Lys28]-Glucagon amide] (H-H[Aib]QGTFTSDLSKYLESRRAREFVQWLLK([γGlu-γGlu-γGlu-C18 diacid])T-NH2; N-terminus assumed)	1	45
